Values of other authors in patent US20210244720A1, “Therapeutic Tyrosine Kinase Inhibitors for Relapsing Multiple Sclerosis (RMS)” (Genzyme Corporation, priority 2020, published 2021).

System: RMS patients
Conditions: from Week 12; cited from earlier work

C=CC(=O)N1CCC(CNc2ncnc(N)c2-c2ccc(Oc3ccccc3)cc2)CC1 [evobrutinib]
reduction of new Gd-enhancing T1 lesions: meaningful reduction
